Experimental data from US10189812B2, “Bi-benzyl isoquinoline derivative, preparation method and use thereof in hepatopathy treatment and prevention” (THE KEY LABORATORY OF CHEMISTRY FOR NATURAL PRODUCTS OF …, priority 2014, dated 2019).
Read-outs that look alike come from different tables or passages of the source.

Assays:
[1] = tested on: PLC/PRF/5 liver cancer cell strains; test: Tetrazolium salt reduction method (MTT) on human liver cancer cell strain PLC/PRF/5; assay type: cell-based
Experimental: 2. human liver cancer cell strains PLC/PRF/5 model discrimination
(§1) Tested methods: Tetrazolium salt reduction method (MTT)
(1) Inoculating cells: A uniform cell suspension was prepared with culture solution containing fetal calf serum (10%). The suspension was implanted into a 96-well cell culture disc by 1000-10000 cells/200 μL per well.
(§2) (2) Culturing cells: The cells were cultured for 3-5 days according to known methods in the art (culturing time depending on experiment objective and requirement).
(§3) (3) Colour response: The cells were cultured for 3-5 days, 20 μl of MTT solution (5 mg/mL, PBS <pH=7.4>) was added in each well, incubated for 4 h. Culture was terminated and the culture suspension was carefully sucked out. As for suspension cells, they need be centrifuged before suspension solution in wells was sucked out. 150 μL of DMSO was added in each well, vibrated for 10 min. The crystal was fully dissolved.
(§4) (4) Colorimetry: Light absorbance values in each well were measured by ELISA at 490 nm and the results were recorded. The cell growth curve was drawn with time as the abscissa and absorbance values as vertical coordinates.
Model principle: Dehydrogenase related to NADP exists in mitochondria of living cell. Yellow MIT is reduced to insoluble blue-purple Formanzan. Dehydrogenase is disappeared in dead cell and MIT can not be reduced. According to reduction extent, action effect of sample on tumor cell is defected.

[2] = tested on: MHCC97L liver cancer cell strains; test: Tetrazolium salt reduction method (MTT) on human liver cancer cell strain MHCC97L; assay type: cell-based
Experimental: 3. human liver cancer cell strains MHCC97L model discrimination
as §1
(1) Inoculating cells: Inoculating cells: A uniform cell suspension was prepared with culture solution containing fetal calf serum (10%). The suspension was implanted into a 96-well cell culture disc by 1000-10000 cells/200 μL per well.
as §2, §3, §4
Model principle: Dehydrogenase related to NADP exists in mitochondria of living cell. Yellow MTT is reduced to insoluble blue-purple Formanzan. Dehydrogenase is disappeared in dead cell and MTT can not be reduced. According to reduction extent, action effect of sample on tumor cell is defected.

[3] = Homo sapiens, PLC-PRF-5, read-out: PLC/PRF/5 IC50 (μM)
[4] = Homo sapiens, MHCC97L, read-out: MHCC97L IC50 (μM)
[5] = Homo sapiens, PLC-PRF-5, MTT, cells cultured 3-5 days, read-out: PLC/PRF/5 IC50
[6] = Homo sapiens, MHCC97L, MTT, cells cultured 3-5 days, read-out: MHCC97L IC50
[7] = MTT, cells cultured 3-5 days, read-out: PLC/PRF/5 IC50
[8] = MTT, cells cultured 3-5 days, read-out: MHCC97L IC50

Structure (SMILES) | IC50 [1, 5] [µM] | IC50 [2, 6] [µM] | IC50 [1, 7] [µM] | IC50 [2, 8] [µM] | other results
COc1cc([N+](=O)[O-])c2cc1Oc1ccc(cc1)C[C@H]1c3cc(c(OC)cc3CCN1C)Oc1c(OC)c(OC)cc3c1[C@H](C2)N(C)CC3 [Compound H-27] |  |  |  |  | IC50 [1, 3]: 2.9 µM; IC50 [2, 4]: 1.9 µM
COc1cc2c3cc1Oc1c(OC)c(OC)c(Br)c4c1[C@H](Cc1c(S(=O)(=O)O)cc(OC)c(c1Br)Oc1ccc(cc1)C[C@@H]3N(C)CC2)N(C)CC4 [Compound H-41] | 9 | 8.6 |  |  | 
COc1cc(S(=O)(=O)O)c2cc1Oc1ccc(cc1)C[C@H]1c3cc(c(OC)cc3CCN1C)Oc1c(OC(=O)c3ccccc3)c(OC)cc3c1[C@H](C2)N(C)CC3 [Compound H-45] | 11.7 | 8.9 |  |  | 
COc1cc(S(=O)(=O)O)c2cc1Oc1ccc(cc1)C[C@H]1c3cc(c(OC)cc3CCN1C)Oc1c(O)c(OC)cc3c1[C@H](C2)N(C)CC3 [Compound H-53] | 3.2 | 1.1 |  |  | 
COc1cc([N+](=O)[O-])c2cc1Oc1ccc(cc1)C[C@H]1c3cc(c(OC)cc3CCN1C)Oc1c(OC(=O)c3ccccc3)c(OC)cc3c1[C@H](C2)N(C)CC3 [Compound H-33] | 9.3 |  |  |  | 
COc1cc(NS(C)(=O)=O)c2cc1Oc1ccc(cc1)C[C@H]1c3cc(c(OC)cc3CCN1C)Oc1c(OC)c(OC)cc3c1[C@H](C2)N(C)CC3 [Compound H-17] | 4.6 | 9.8 |  |  | 
COc1ccc2cc1Oc1ccc(cc1)C[C@H]1c3cc(c(OC)cc3CCN1C)Oc1c(ON=O)c(OC)cc3c1[C@H](C2)N(C)CC3 [Compound H-42] | 3.4 | 9.6 |  |  | 
COc1cc(NS(=O)(=O)c2ccccc2)c2cc1Oc1ccc(cc1)C[C@H]1c3cc(c(OC)cc3CCN1C)Oc1c(OC)c(OC)cc3c1[C@H](C2)N(C)CC3 [Compound H-18] |  |  | 10.7 | 9.1 | 
COc1cc(NC(=O)COC(C)=O)c2cc1Oc1ccc(cc1)C[C@H]1c3cc(c(OC)cc3CCN1C)Oc1c(OC)c(OC)cc3c1[C@H](C2)N(C)CC3 [Compound H-13] |  |  | 10.1 | 8.4 | 
COc1cc2c3cc1Oc1c(OC)c(OC)c(Cl)c4c1[C@H](Cc1c([N+](=O)[O-])cc(OC)c(c1Cl)Oc1ccc(cc1)C[C@@H]3N(C)CC2)N(C)CC4 [Compound H-44] |  |  | 4.1 | 9.4 | 
COc1cc(NS(=O)(=O)c2ccccc2[N+](=O)[O-])c2cc1Oc1ccc(cc1)C[C@H]1c3cc(c(OC)cc3CCN1C)Oc1c(OC)c(OC)cc3c1[C@H](C2)N(C)CC3 [Compound H-21] |  |  | 10.8 | 11.3 | 
COc1cc2c3cc1Oc1c(OC(C)=O)c(OC)c(Cl)c4c1[C@H](Cc1c(Cl)cc(OC)c(c1Cl)Oc1ccc(cc1)C[C@@H]3N(C)CC2)N(C)CC4 [Compound H-51] |  |  |  |  | IC50 [1, 3]: 1.4 µM; IC50 [2, 4]: 10.4 µM
COc1cc(NC(C)=O)c2cc1Oc1ccc(cc1)C[C@H]1c3cc(c(OC)cc3CCN1C)Oc1c(OC)c(OC)cc3c1[C@H](C2)N(C)CC3 [Compound H-01] |  |  |  |  | IC50 [1, 3]: 12.3 µM; IC50 [2, 4]: 12.9 µM
COc1ccc(C(=O)Nc2cc(OC)c3cc2C[C@H]2c4c(cc(OC)c(OC)c4Oc4cc5c(cc4OC)CCN(C)[C@H]5Cc4ccc(cc4)O3)CCN2C)cc1 [Compound H-04] |  |  | 5.4 | 12.2 | 
COc1cc(NC(=O)OCC(C)C)c2cc1Oc1ccc(cc1)C[C@H]1c3cc(c(OC)cc3CCN1C)Oc1c(OC)c(OC)cc3c1[C@H](C2)N(C)CC3 [Compound H-08] |  |  | 4.6 | 1.4 | 
COc1cc(S(=O)(=O)OC)c2cc1Oc1ccc(cc1)C[C@H]1c3cc(c(OC)cc3CCN1C)Oc1c(OC)c(OC)cc3c1[C@H](C2)N(C)CC3 [Compound H-39] | 8.1 | 9.9 |  |  | 
COc1cc(NS(=O)(=O)c2ccc(Cl)cc2Cl)c2cc1Oc1ccc(cc1)C[C@H]1c3cc(c(OC)cc3CCN1C)Oc1c(OC)c(OC)cc3c1[C@H](C2)N(C)CC3 [Compound H-22] |  |  | 2.1 | 5.6 | 
C=C(OC)/C(OC)=C1/Oc2cc3c(cc2OC)CCN(C)[C@H]3Cc2ccc(cc2)Oc2cc(c(S(=O)(=O)O)cc2OC)C[C@H]2C1=CCCN2C [Compound H-37] | 7.6 | 7.3 |  |  | 

Structure (SMILES) | IC50 [1, 5] [µM] | IC50 [2, 6] [µM] | IC50 [1, 7] [µM] | IC50 [2, 8] [µM] | other results
COc1cc(NC(=O)CO)c2cc1Oc1ccc(cc1)C[C@H]1c3cc(c(OC)cc3CCN1C)Oc1c(OC)c(OC)cc3c1[C@H](C2)N(C)CC3 [Compound H-12] | 10.1 | 9.1 |  |  | 
COc1cc2c3cc1Oc1c(OC)c(OC)c(Br)c4c1[C@H](Cc1c([N+](=O)[O-])cc(OC)c(c1Br)Oc1ccc(cc1)C[C@@H]3N(C)CC2)N(C)CC4 [Compound H-36] | 11.9 | 12.1 |  |  | 
COC(=O)C(=O)Nc1cc(OC)c2cc1C[C@H]1c3c(cc(OC)c(OC)c3Oc3cc4c(cc3OC)CCN(C)[C@H]4Cc3ccc(cc3)O2)CCN1C [Compound H-14] |  |  | 12.7 | 7.9 | 
COc1cc(N)c2cc1Oc1ccc(cc1)C[C@H]1c3cc(c(OC)cc3CCN1C)Oc1c(OC)c(OC)cc3c1[C@H](C2)N(C)CC3 [Compound H-29] | 14.8 | 10.1 |  |  | 
COc1cc(Cl)c2cc1Oc1ccc(cc1)C[C@H]1c3cc(c(OC)cc3CCN1C)Oc1c(OC(C)=O)c(OC)c(Cl)c3c1[C@H](C2)N(C)CC3 [Compound H-50] |  |  | 9.8 | 3.3 | 
CNC(=O)c1cc(Oc2ccc(NC(=O)Nc3ccc(Cl)c(C(F)(F)F)c3)cc2)ccn1 [Sorafenib, reference compound] | 26.9 | 34.4 |  | 34.4 | 
COc1cc(Cl)c2cc1Oc1ccc(cc1)C[C@H]1c3cc(c(OC)cc3CCN1C)Oc1c(OC)c(OC)c(Br)c3c1[C@H](C2)N(C)CC3 [Compound H-54] | 3.2 | 0.4 |  |  | 
COc1cc(Br)c2cc1Oc1ccc(cc1)C[C@H]1c3cc(c(OC)cc3CCN1C)Oc1c(OC(C)=O)c(OC)c(Br)c3c1[C@H](C2)N(C)CC3 [Compound H-49] |  |  |  |  | IC50 [1, 3]: 2.4 µM; IC50 [2, 4]: 8.7 µM
COc1cc(S(=O)(=O)O)c2cc1Oc1ccc(cc1)C[C@H]1c3cc(c(OC)cc3CCN1C)Oc1c(OC)c(OC)c(Br)c3c1[C@H](C2)N(C)CC3 [Compound H-40] |  |  | 10.5 | 9.2 | 
COc1cc([N+](=O)[O-])c2cc1Oc1ccc(cc1)C[C@H]1c3cc(c(OC)cc3CCN1C)Oc1c(OC)c(OC)c([N+](=O)[O-])c3c1[C@H](C2)N(C)CC3 [Compound H-28] | 20.1 | 8.1 |  |  | 
COc1cc(N=O)c2cc1Oc1ccc(cc1)C[C@H]1c3cc(c(OC)cc3CCN1C)Oc1c(OC)c(OC)cc3c1[C@H](C2)N(C)CC3 [Compound H-30] |  | 10.7 |  |  | 
COc1cc(N)c2cc1Oc1ccc(cc1)C[C@H]1c3cc(c(OC)cc3CCN1C)Oc1c(OC(=O)c3ccccc3)c(OC)cc3c1[C@H](C2)N(C)CC3 [Compound H-34] | 7.8 | 6.6 |  |  | 
COc1cc([N+](=O)[O-])c2cc1Oc1ccc(cc1)C[C@H]1c3cc(c(OC)cc3CCN1C)Oc1c(OC(=O)c3ccccc3)c(OC)cc3c1[C@H](C2)N(C)CC3 [Compound H-52] |  |  | 6.7 | 9.7 | 
COc1ccc2cc1Oc1ccc(cc1)C[C@H]1c3cc(c(OC)cc3CCN1C)Oc1c(OCc3ccccc3)c(OC)cc3c1[C@H](C2)[N+](C)(Cc1ccccc1)CC3 (some centres unmarked) [Compound H-31] |  |  |  |  | IC50 [1, 3]: 12.7 µM; IC50 [2, 4]: 12.7 µM
COc1cc([N+](=O)[O-])c2cc1Oc1ccc(cc1)C[C@H]1c3cc(c(OC)cc3CCN1C)Oc1c(OCc3ccccc3)c(OC)cc3c1[C@H](C2)N(C)CC3 [Compound H-32] | 8.9 | 1.26 |  |  | 
COc1cc(S(=O)(=O)Nc2ccccc2)c2cc1Oc1ccc(cc1)C[C@H]1c3cc(c(OC)cc3CCN1C)Oc1c(OC)c(OC)cc3c1[C@H](C2)N(C)CC3 [Compound H-38] | 10.2 | 10.7 |  |  | 
COc1cc([N+](=O)[O-])c2cc1Oc1ccc(cc1)C[C@H]1c3cc(c(OC)cc3CCN1C)Oc1c(OC)c(OC)c(Cl)c3c1[C@H](C2)N(C)CC3 [Compound H-43] | 8.1 | 8.8 |  |  | 
COc1ccc2cc1Oc1ccc(cc1)C[C@H]1c3cc(c(OC)cc3CCN1C)Oc1c(OC(C)=O)c(OC)c(Br)c3c1[C@H](C2)N(C)CC3 [Compound H-48] |  |  |  |  | IC50 [1, 3]: 0.5 µM; IC50 [2, 4]: 4.1 µM
